# Reference: the OligoGym collection
# “And” between values parts separate entries of the source, which are not always exact repeats. Identical values can stand only once. After the bases stand the sugars from the 5' end (letter, count) and the backbone: PS all phosphorothioate, else s phosphorothioate and o phosphodiester by linkage. Methylation of C is not given here. e = 2'-O-(2-methoxyethyl) (MOE); k = constrained ethyl (cEt); d = 2'-deoxy (DNA)
# Target: SOD1
# Conditions: ASO
sequence,measurement,setting,value
"ATACATTTCTACAGCTA (sugars e3 k2 d7 k2 e3, PS)",target mRNA inhibition,"HepG2, 0.1875 µM",34%
same,target mRNA inhibition,"HepG2, 0.75 µM",56%
same,target mRNA inhibition,"HepG2, 3 µM",57% and 82%
same,target mRNA inhibition,"HepG2, 12 µM",93%
"ATTTAAGTCTGGCAAAATAC (sugars e5 d10 e5, PS)",target mRNA inhibition,"HepG2, 5 µM",16%
"TTGGGCGATCCCAATTA (sugars e2 k2 d8 k2 e3, PS)",target mRNA inhibition,"HepG2, 4 µM",14%
"ATTACTTTCCTTCTGCT (sugars e3 k2 d7 k2 e3, PS)",target mRNA inhibition,"HepG2, 3 µM",15%
"CTTTCCTTCTGCTCGAA (sugars e3 k2 d7 k2 e3, PS)",target mRNA inhibition,"HepG2, 3 µM",0%
"TTAATACCCATCTGTGA (sugars e2 k2 d8 k2 e3, PS)",target mRNA inhibition,"HepG2, 5 µM",28%
"TCGCCCTTCAGCACGCA (sugars e2 k2 d9 k2 e2, PS)",target mRNA inhibition,"HepG2, 4 µM",63% and 60% and 54%
same,target mRNA inhibition,"HepG2, 5 µM",61% and 58% and 71%
same,target mRNA inhibition,"HepG2, 12 µM",74%
"CATCCTTTGGCCCACCG (sugars e3 k2 d7 k2 e3, PS)",target mRNA inhibition,"HepG2, 3 µM",38%
"GGAATGTTTATTGGGCG (sugars e2 k2 d8 k2 e3, PS)",target mRNA inhibition,"HepG2, 4 µM",37%
"CCGTCGCCCTTCAGCACGCA (sugars e5 d8 e7, linkages s1 o3 s10 o3 s2)",target mRNA inhibition,"A431, 0.062 µM",8%
same,target mRNA inhibition,"A431, 0.185 µM",4%
same,target mRNA inhibition,"A431, 0.556 µM",5%
same,target mRNA inhibition,"A431, 1.667 µM",4%
same,target mRNA inhibition,"A431, 5 µM",9%
same,target mRNA inhibition,"A431, 15 µM",3%
same,target mRNA inhibition,"SH-SY5Y, 0.062 µM",11%
same,target mRNA inhibition,"SH-SY5Y, 0.185 µM",15%
same,target mRNA inhibition,"SH-SY5Y, 0.556 µM",9%
same,target mRNA inhibition,"SH-SY5Y, 1.667 µM",30%
same,target mRNA inhibition,"SH-SY5Y, 5 µM",59%
same,target mRNA inhibition,"SH-SY5Y, 15 µM",76%
"GCTAGCAGGATAACAGA (sugars e2 k2 d8 k2 e3, PS)",target mRNA inhibition,"HepG2, 4 µM",19%
"CCTCAGACTACATCCAA (sugars e2 k2 d9 k2 e2, PS)",target mRNA inhibition,"HepG2, 0.1875 µM",11%
same,target mRNA inhibition,"HepG2, 0.75 µM",67%
same,target mRNA inhibition,"HepG2, 3 µM",89%
same,target mRNA inhibition,"HepG2, 4 µM",87%
same,target mRNA inhibition,"HepG2, 12 µM",94%
"TGATGCAATGGTCTCCTGAG (sugars e5 d10 e5, PS)",target mRNA inhibition,"HepG2, 5 µM",1%
"TAAGTGCCATACAGGGT (sugars e2 k2 d9 k2 e2, PS)",target mRNA inhibition,"HepG2, 5 µM",35%
"AATGATGCAATGGTCTCCTG (sugars e5 d10 e5, PS)",target mRNA inhibition,"HepG2, 5 µM",0%
"TAATACCCATCTGTGAT (sugars e2 k2 d9 k2 e2, PS)",target mRNA inhibition,"HepG2, 5 µM",28%
"ACAGGTACTTTAAAGCA (sugars e2 k2 d8 k2 e3, PS)",target mRNA inhibition,"HepG2, 5 µM",14%
"CCAAGTGATCATAAATC (sugars e2 k2 d8 k2 e3, PS)",target mRNA inhibition,"HepG2, 5 µM",40%
"CTGACAAGTTTAATACC (sugars e2 k2 d8 k2 e3, PS)",target mRNA inhibition,"HepG2, 5 µM",30%
"AGTGCCATACAGGGTTT (sugars e3 k2 d7 k2 e3, PS)",target mRNA inhibition,"HepG2, 3 µM",9%
"ATAACTCGCTAGGCCACGCC (sugars e5 d10 e5, PS)",target mRNA inhibition,"HepG2, 4 µM",12%
"CATTTCTACAGCTAGC (sugars ekddddddddekekee, linkages s1 o1 s8 o3 s2)",target mRNA inhibition,"A431, 0.12 µM",3%
same,target mRNA inhibition,"A431, 0.6 µM",3%
same,target mRNA inhibition,"A431, 3 µM",2%
same,target mRNA inhibition,"A431, 15 µM",11%
"ATAATAAGTGCCATACAGGG (sugars e5 d10 e5, PS)",target mRNA inhibition,"HepG2, 5 µM",18%
"AGTGCCATACAGGGTTT (sugars e2 k2 d9 k2 e2, PS)",target mRNA inhibition,"HepG2, 5 µM",27%
"CAGGCCTTCAGTCAGTCCTT (sugars e5 d10 e5, PS)",target mRNA inhibition,"HepG2, 5 µM",56% and 51%
"ATCCATGCAGGCCTTCA (sugars e3 k2 d7 k2 e3, PS)",target mRNA inhibition,"HepG2, 3 µM",27%
"GGCCAGACCTCCGCGCCTCG (sugars e5 d10 e5, PS)",target mRNA inhibition,"HepG2, 4 µM",49%
"GTCATCTGCTTTTTCAT (sugars e3 k2 d7 k2 e3, PS)",target mRNA inhibition,"HepG2, 3 µM",74%
"AAACAGACATTTTAACTGAG (sugars e5 d10 e5, PS)",target mRNA inhibition,"HepG2, 5 µM",4%
"ACTATACAAATCTTCCA (sugars e3 k2 d7 k2 e3, PS)",target mRNA inhibition,"HepG2, 3 µM",10%
